Measurements from patent US20040062743A1, “Acid-containing desensitization agents for teeth” (priority 2002, published 2004).

How the values were obtained:
[1] = tested on: horse serum diluted with physiological common-salt solution, 2 mM CaCl2 (simulated dentinal fluid); test: Measurement of the protein precipitation (weight of dried precipitate); type: biochemical; details: for Precipitate: average of 5 measurements
Description: Furthermore, acids which also have calcium-precipitating properties in addition to protein-precipitating properties are particularly preferred. Protein and calcium-precipitating properties are detected in standardized tests. Protein precipitation is measured as described in Example 6, the acids to be examined in the solution described in Example 5 (2nd component) being present in a concentration of 0.2 M. The acid-containing solution is mixed with the protein solution described in Example 6 and the mass of the obtained precipitate is determined. According to the invention, acids which yield a pellet weight of >25 mg, preferably >30 mg and in particular >40 mg are preferred. The upper limit of the pellet weight is determined by the masses of the components used. Acids which yield a quantitative precipitation under the described conditions are particularly suitable according to the invention.
Furthermore, CaCl2 (2 mM) was added to the diluted protein solution in order to adjust the calcium-ion concentration to that of dentinal fluid.
500 μl of the protein solution was then reacted with […] of the composition to be tested and the mixture was left to stand for 30 minutes at room temperature, centrifuged and the obtained precipitates dried at 75° C. and weighed.
For protein precipitation, the solution (2nd component) described in Example 5 was used which was reacted with phosphonic acid in concentrations of 10 mM to 200 mM (cf. Table 1). 5 precipitations per concentration were carried out and then the average of the determinations was calculated.

Which melting point does the source give for `C=C(COCCP(=O)(O)O)C(=O)O` [Example 1, 2-[4-(dihydroxyphosphoryl)-2-oxa-butyl]-acrylic acid] here?
Its melting point is 119 to 120 °C.

And the “Protein precipitation (in words)” value ([1]; 150 mM acid)?
Its value is “quantitative”.

And the Precipitate ([1]; acid concentration 10 mM in solution (2nd component) of Example 5)?
The Precipitate was 55.3 mg.

What about the Precipitate ([1]; acid concentration 25 mM in solution (2nd component) of Example 5) of the same molecule?
The Precipitate was 58.2 mg.

And the Precipitate ([1]; acid concentration 50 mM in solution (2nd component) of Example 5)?
Its Precipitate is 58.8 mg.

What about the Precipitate ([1]; acid concentration 75 mM in solution (2nd component) of Example 5) of the same molecule?
Its Precipitate is 69.1 mg.

And the Precipitate ([1]; acid concentration 100 mM in solution (2nd component) of Example 5)?
The Precipitate was 70.8 mg.

What about the Precipitate ([1]; acid concentration 150 mM in solution (2nd component) of Example 5) of the same molecule?
The Precipitate was 74.2 mg.

And the Precipitate ([1]; acid concentration 200 mM in solution (2nd component) of Example 5)?
Its Precipitate is 72.3 mg.
